Experimental data: US6083932A, “Pharmaceutical compositions derived from ginseng and methods of treatment using same” (CV Technologies Inc., priority 1998, dated 2000)
“And” between values parts separate entries of the source, which are not always exact repeats. Equal entries are not always repeated. “Also recorded” adds a separate entry of the source.

What was measured:
T type calcium channel = T type calcium channel currents in N1E115 neuroblastoma cells (whole-cell patch-clamp); type: cell-based, mouse; settings: same concentration (100 μM); N1E-115 cells
Method: A study of the effects of HT1001 and some pure ginsenosides on calcium channel activity in cultured neuroblastoma cells was conducted.
Neuroblastoma Cell Culture. Mouse neuroblastoma cells (N1E115) were cultured in Dulbecco's modified Eagle's medium (GIBCO) containing 10% fetal bovine serum at 37° C. in a humidified atmosphere of 5% CO2 in air. The medium was changed every 3-4 days. After mechanical agitation, 3×10^4 cells were replanted in 35 mm tissue culture dishes containing 4 ml of bath solution. After cell attachment, the dish was mounted on the stage of an inverted phase-contrast microscope (Nikon) for Ca^2+ channel current recording. These cells expressed predominately T channel currents. In experiments where L channels were specifically sought, the cells were grown and maintained at confluence for 3-4 weeks under the same culture conditions with the addition of 2% (vol/vol) dimethyl sulfoxide. Three to five days before use, the cells were replanted with the same medium. These cells expressed predominately L channel currents. […]
Ca^2+ Channel Current Recording in Neuroblastoma Cells. […] Since the peak currents measured with 20 mM Ba^2+ as the charge carrier were usually small (about 200 pA) the series resistance compensation was not usually employed. […] For every single-cell recording, stable readings were first obtained for 5 min; the drug was then added to the bath solution. […]

PC12 cells = experiment: neurite outgrowth in PC12 cells; type: cell-based; settings: seven days after treatment
Method: A study of the neurotrophic effects of HT1001 and some pure ginsenosides was conducted. A new mechanism of action for HT1001 was shown, which is the stimulation of neurite outgrowth in a PC12 cell line. […] The beneficial effects (prevention/treatment) of HT-1001 may apply to degenerative diseases such as senile dementia, Parkinson's disease, Alzheimer's disease, multi-infarct dementia, etc. Alzheimer's disease (AD) is associated with degeneration of cholinergic nerve tracts including projections from the basal forebrain to the cortex and hippocampus. The PC12 (pheochromocytoma) cell line is one of the models for the study of the development of these nerve tracts. The cell line is phenotypically a chromaffin cell line, but can be induced to express adrenergic and cholinergic markers as well. This model has the advantages that (1) it is an immortalized cell line, (2) it is sensitive to, but not dependent upon, NGF for survival, and (3) it shares many properties in common with the central cholinergic neurons of the basal forebrain. It has been noted that PC12 cells are not sensitive to all of the trophic factors that central cholinergic neurons respond to, whereas central cholinergic neurons respond to all trophic factors that PC12 cells respond to. […] The cellular responses to Nerve Growth Factor (NGF) and samples were determined by counting the number of cells containing processes in PC12 cells. […] The cells and neurites were counted as follows: The cells with circular or global shape and no neurite outgrowth were scored as 0 (S0). […] Cells with more than two small neurites on the cell bodies were scored as S2. Cells with one or two neurites with a length of at least two times diameter as their body were scored as S3. Cells with more than two long neurites were scored as S4. The neurite index was calculated as below: Neurite index (In)=total neurite Score (ΣS)/total cell number (.[…] is the cell number of every cell field. The test samples included: […]

5-hydroxytryptamine = settings: rat and mouse brain; Zhang et al 1990; cited from earlier work
[1] = test system: choline uptake into synaptosomes, hippocampus; experiment: choline uptake into synaptosomes from rat hippocampus; type: biochemical; settings: 1 × 10^-6M, n = 10, 1 µM
Description: We also studied the effects of HT1001 on choline uptake in synaptosomes.
We have examined choline uptake in synaptosome preparations from whole brain and hippocampus in the presence of Rb1, HT1001 and HC3.

[2] = test system: choline uptake into synaptosomes, whole brain; settings: Benishin 1992 / previously demonstrated; cited from earlier work
rats = settings: rat, in vivo; cited from earlier work

SMILES	effect on T type calcium channel currents (T type calcium channel)	neurite outgrowth (FIG. 31) (PC12 cells)	levels of 5-hydroxytryptamine and 5-hydroxyindoleacetic acid (5-hydroxytryptamine)	choline uptake, Rb1 [1]	choline uptake (literature) [2]	learning and memory (literature) (rats)
CC(C)=CCC[C@](C)(O[C@@H]1O[C@H](CO[C@@H]2O[C@H](CO)[C@@H](O)[C@H](O)[C@H]2O)[C@@H](O)[C@H](O)[C@H]1O)[C@H]1CC[C@]2(C)[C@@H]1[C@H](O)C[C@@H]1[C@@]3(C)CC[C@H](O[C@@H]4O[C@H](CO)[C@@H](O)[C@H](O)[C@H]4O[C@@H]4O[C@H](CO)[C@@H](O)[C@H](O)[C@H]4O)C(C)(C)[C@@H]3CC[C@]12C [Rb1, ginsenoside Rb1]	significant inhibitory effect; also recorded: inhibitory effects	significantly increased neurite outgrowth	decrease the levels	126 % control and 111 % control and 125 % control	increase choline uptake	enhance learning and memory
CC(C)=CCC[C@](C)(O[C@@H]1O[C@H](CO)[C@@H](O)[C@H](O)[C@H]1O)[C@H]1CC[C@]2(C)[C@@H]1[C@H](O)C[C@@H]1[C@@]3(C)CC[C@H](O)C(C)(C)[C@@H]3[C@@H](O[C@@H]3O[C@H](CO)[C@@H](O)[C@H](O)[C@H]3O)C[C@]12C [Rg1, ginsenoside Rg1]	significant inhibitory effect; also recorded: inhibitory effects	significantly increased neurite outgrowth	decrease the levels			
